{"source": "paper PMC7450530", "about": "(Biochemistry, 2019)", "key": {"[1]": {"target": "T1, M. tuberculosis GyrA^A90V gyrase (Mycobacterium tuberculosis, UniProt P9WG47, A90V)", "type": "biochemical"}, "[2]": {"target": "T1, M. tuberculosis GyrA^A90V gyrase", "type": "biochemical", "remark": "listed apart in the source"}}}
{"smiles": "CC[C@H](C)n1cc(C)c2c(C(=O)NCc3c(C)cc(C)[nH]c3=O)cc(-c3ccc(N4CCNCC4)nc3)cc21", "note": "[GSK126]", "values": [{"measurement": "potency in supercoiling inhibition compared to the wild-type enzyme", "setting": "[1]", "value": "potency dropped considerably"}, {"measurement": "single-stranded DNA cleavage enhancement compared to wild-type", "setting": "[2]", "value": "induced substantially more single-stranded DNA cleavage"}]}
